Data from patent publication US20160106102A1, “KNOWN AND NEW HETEROCYCLIC COMPOUNDS AS PEST CONTROL AGENTS” (BAYER CROPSCIENCE AKTIENGESELLSCHAFT, priority 2013, published 2016).
Like-named read-outs stand apart in the source and are kept apart here.

Legend:
Myzus persicae [1] = assay: Myzus persicae - sachet test; format: in vivo; details: 100% = all animals killed; for pest or weed control at 6 ppm / pest or weed control at 30 ppm: Myzus persicae, read-out: efficacy (kill in %)
Method in brief: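 Green peach aphids feed through a sealed sachet on nutrient medium containing the water-diluted formulation (solvents: 2% N-methylpyrrolidone, 2% diacetone alcohol). Percent mortality read after the chosen time; 100% means all animals killed.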

[2] = log P determination by LC-MS in the acidic range; format: physicochemical; details: for log P (acid): LC-MS in the acidic range
Source text: The LC-MS determination in the acidic range is effected at pH 2.7 using 0.1% aqueous formic acid and acetonitrile (contains 0.1% formic acid) as eluents, linear gradient from 10% acetonitrile to 95% acetonitrile. Alternatively, the determination is effected in the acidic range at pH 2.3 using 0.1% aqueous phosphoric acid and acetonitrile as eluents; linear gradient from 10% acetonitrile to 95% acetonitrile.

Myzus persicae [3] = assay: Myzus persicae - spray test; format: in vivo; details: application rate of 500 g/ha, after 6 days, sprayed Chinese cabbage leaf discs infested by all stages, 100% = all aphids killed; for pest or weed control at 500 g/ha: Myzus persicae, foliar, 144 h, read-out: efficacy in %
Method in brief: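 Chinese cabbage leaf discs infested with all stages of green peach aphid sprayed with compound in acetone/DMF formulation with alkylaryl polyglycol ether emulsifier, diluted in emulsifier-containing water. Efficacy (% aphids killed) assessed after 6 days.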

[4] = application rate of 6 ppm in nutrient medium
[5] = application rate of 30 ppm in nutrient medium
[6] = pH 2.7, LC-MS in the acidic range, read-out: log P (acid)
[7] = pH 2.7, values given in the synthesis examples and NMR lists, read-out: HPLC-MS: log P

Compound | log P (acid) [2] | chromatographic logP [2, 6] | chromatographic logP [2, 7] | efficacy (kill in %) (Myzus persicae [1]; [4]) [%] | efficacy (kill in %) (Myzus persicae [1]; [5]) [%] | efficacy in % (Myzus persicae [3]) [%] | pest or weed control at 6 ppm (Myzus persicae [1]; [4]) [%] | pest or weed control at 30 ppm (Myzus persicae [1]; [5]) [%] | pest or weed control at 500 g/ha (Myzus persicae [3]) [%]
Cc1cc(NC(=O)c2cccnc2)nn1Cc1cc(C(=O)O)n(-c2ncccc2Cl)n1 [Compound I-1-156] | 1.18 |  |  | 100 | 100 | 90 |  |  | 
O=C(Nc1ccn(CC(F)F)n1)c1cccnc1 [Compound I-1-13] | 0.74 |  |  | 100 | 100 | 90 |  |  | 
Cc1cc(NC(=O)c2cccnc2)nn1CCC#N [Compound I-1-185] | 0.57 |  |  | 100 | 100 | 100 |  |  | 
COCn1nc(NC(=O)c2cccnc2)cc1C [Compound I-1-175] | 0.71 |  |  | 100 | 100 | 100 |  |  | 
Cc1ccnc(Cn2nc(NC(=O)c3cccnc3)cc2C)n1 [Compound I-1-31] | 0.96 |  |  | 100 | 100 | 90 |  |  | 
Cc1cc(NC(=O)c2cccnc2)nn1Cc1ccccn1 [Compound I-1-6] | 0.88 |  |  | 100 | 100 | 90 |  |  | 
Cc1cc(NC(=O)c2cncc(F)c2)nn1Cc1ncccn1 [Compound I-1-7, 5-Fluoro-N-[5-methyl-1-(pyrimidin-2-ylmethyl)-1H-pyrazol-3-yl]nicotinamide] |  | 1.11 | 1.11 |  |  |  | 100 | 100 | 90
Cc1cc(N(C)C(=O)c2cccnc2)nn1CC[S+](C)[O-] (stereo not shown) [Compound I-1-186] | 0.16 |  |  | 100 | 100 | 100 |  |  | 
Cc1ccn(Cn2nc(NC(=O)c3cccnc3)cc2C)n1 [Compound I-1-192] | 1.16 |  |  | 100 | 100 | 100 |  |  | 
CCC(=O)n1nc(NC(=O)c2cccnc2)cc1C [Compound I-1-129] | 1.56 |  |  | 100 | 100 | 90 |  |  | 
O=C(Nc1ccn(-c2ncccc2F)n1)c1cccnc1 [Compound I-1-30] | 1.15 |  |  | 100 | 100 | 90 |  |  | 
O=C(Nc1nn(Cc2ncccn2)c2ccccc12)c1cncc(F)c1 [Compound I-1-216] | 1.54 |  |  | 100 | 100 | 90 |  |  | 
COCCn1nc(NC(=O)c2cccnc2)cc1C [Compound I-1-173] | 0.79 |  |  | 80 | 80 | 100 |  |  | 
Cc1cc(NC(=O)c2cccnc2)nn1Cn1c(C)nn(C)c1=O [Compound I-1-148] | 0.74 |  |  | 100 | 100 | 90 |  |  | 
Cc1cc(NC(=O)c2cccnc2)nn1Cc1cccc(F)c1 [Compound I-1-60] | 1.9 |  |  | 100 | 100 | 100 |  |  | 
Cc1cc(N(C(=O)c2ccc(Cl)cc2)C(=O)c2cccnc2)nn1C(=O)c1ccc(Cl)cc1 [Compound I-1-42] | 4.18 |  |  | 80 | 100 | 90 |  |  | 
Cc1cc(NC(=O)c2cccnc2)nn1-c1cccc(F)c1 [Compound I-1-202] | 1.85 |  |  | 80 | 100 | 90 |  |  | 
Cc1cc(NC(=O)c2cccnc2)nn1C(=O)NCCOC(F)(F)F [Compound I-1-172] | 1.91 |  |  | 100 | 100 | 90 |  |  | 
C#CCn1ccc(NC(=O)c2cccnc2)n1 [Compound I-1-54] | 0.69 |  |  | 100 | 100 | 90 |  |  | 
Cc1cc(NC(=O)c2cccnc2)nn1CC1CCCO1 (stereo not shown) [Compound I-1-176] | 1.06 |  |  | 80 | 80 | 100 |  |  | 
CCSCCn1nc(NC(=O)c2cccnc2)cc1C [Compound I-1-189] | 1.53 |  |  | 100 | 100 | 90 |  |  | 
Cc1cc(NC(=O)c2cccnc2)nn1Cc1ccncc1 [Compound I-1-51] | 0.13 |  |  | 100 | 100 | 90 |  |  | 
Cc1cc(N(C)C(=O)c2cccnc2)nn1-c1ncccn1 [Compound I-1-25, N-Methyl-N-[5-methyl-1-(pyrimidin-2-yl)-1H-pyrazol-3-yl]nicotinamide] |  | 1.02 | 1.02 |  |  |  | 100 | 100 | 100
Cc1cc(NC(=O)c2cccnc2)nn1CC1CC1 [Compound I-1-174] | 1.31 |  |  | 100 | 100 | 100 |  |  | 
O=C(Nc1nn(Cc2ncccn2)c2ccccc12)c1cccnc1 [Compound I-1-215] | 1.16 |  |  | 100 | 100 | 90 |  |  | 
COCC(C)NC(=O)n1nc(NC(=O)c2cccnc2)cc1C (stereo not shown) [Compound I-1-166] | 1.44 |  |  | 100 | 100 | 100 |  |  | 
Cc1cc(NC(=O)c2cccnc2)nn1C [Compound I-1-3] | 0.63 |  |  | 100 | 100 | 90 |  |  | 

The next lines start with results.

log P (acid) [2] | chromatographic logP [2, 6] | chromatographic logP [2, 7] | Compound | efficacy (kill in %) (Myzus persicae [1]; [4]) [%] | efficacy (kill in %) (Myzus persicae [1]; [5]) [%] | efficacy in % (Myzus persicae [3]) [%] | pest or weed control at 6 ppm (Myzus persicae [1]; [4]) [%] | pest or weed control at 30 ppm (Myzus persicae [1]; [5]) [%] | pest or weed control at 500 g/ha (Myzus persicae [3]) [%]
2.18 |  |  | CCCC(C)NC(=O)n1nc(NC(=O)c2cccnc2)cc1C (stereo not shown) [Compound I-1-318] | 100 | 100 | 90 |  |  | 
1.32 |  |  | Cc1cc(NC(=O)c2cccnc2)nn1Cc1ncnn1-c1ccccc1 [Compound I-1-304] | 100 | 100 | 100 |  |  | 
1.38 |  |  | Cc1cc(NC(=O)c2cccnc2)nn1CC(=O)C1(Cl)CC1 [Compound I-1-260] | 100 | 100 | 90 |  |  | 
0.94 |  |  | Cc1cc(NC(=O)c2cccnc2)nn1Cn1cccn1 [Compound I-1-225] | 100 | 100 | 100 |  |  | 
1.71 |  |  | Cc1cc(NC(=O)c2cccnc2)nn1Cc1noc(C(C)(C)C)n1 [Compound I-1-285] | 100 | 100 | 90 |  |  | 
0.45 |  |  | CC[S+]([O-])Cn1nc(NC(=O)c2cccnc2)cc1C (stereo not shown) [Compound I-1-245] | 100 | 100 | 100 |  |  | 
0.58 |  |  | Cc1cc(NC(=O)c2cccnc2)nn1Cn1cncn1 [Compound I-1-224] | 100 | 100 | 100 |  |  | 
0.64 |  |  | Cc1cc(NC(=O)c2cccnc2)nn1C(=O)NCc1cccnc1 [Compound I-1-330] | 100 | 100 | 90 |  |  | 
0.86 |  |  | Cc1cc(NC(=O)c2cccnc2)nn1C(=O)N(C)C [Compound I-1-291] | 100 | 100 | 90 |  |  | 
1.67 |  |  | Cc1cc(NC(=O)c2cccnc2)nn1C(=O)NC(C)(C)c1ncccn1 [Compound I-1-335] | 100 | 100 | 90 |  |  | 
0.65 |  |  | Cc1cc(NC(=O)c2cccnc2)nn1Cn1ccnn1 [Compound I-1-223] | 100 | 100 | 100 |  |  | 
1.84 |  |  | Cc1cc(NC(=O)c2cccnc2)nn1CC1CC1(Cl)Cl (stereo not shown) [Compound I-1-237] | 100 | 100 | 90 |  |  | 
1.11 |  |  | Cc1cc(NC(=O)c2cccnc2)nn1C(=O)c1ncccn1 [Compound I-1-345] | 100 | 100 | 90 |  |  | 
0.84 |  |  | Cc1cc(N(CC#N)C(=O)c2cccnc2)nn1Cc1ncccn1 [Compound I-1-262] | 100 | 100 | 90 |  |  | 
